This is an account of results in article PMC9465256, “Discovering monoacylglycerol lipase inhibitors by a combination of fluorogenic substrate assay and activity-based protein profiling” (Frontiers in Pharmacology, 2022).

Common to all, as to type: biochemical
In experiment [1] the target is T1, human MAGL (Homo sapiens, UniProt Q99685).
T1 construct: expressed in transfected cells; host or cells: HEK293T (transient transfection; membrane fraction)
T1 sequence (Q99685 1-303): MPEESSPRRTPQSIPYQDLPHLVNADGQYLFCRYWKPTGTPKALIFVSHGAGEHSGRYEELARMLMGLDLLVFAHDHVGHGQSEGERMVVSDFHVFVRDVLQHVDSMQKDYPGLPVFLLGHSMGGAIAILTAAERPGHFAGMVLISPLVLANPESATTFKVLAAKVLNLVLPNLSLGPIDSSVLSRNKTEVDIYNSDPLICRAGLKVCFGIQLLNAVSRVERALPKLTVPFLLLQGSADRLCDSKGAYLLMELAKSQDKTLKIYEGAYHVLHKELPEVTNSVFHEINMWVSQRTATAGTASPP
Description: MAGL activity assay (AA-HNA fluorogenic substrate). To be noted: read-out: MAGL Inhibition (%); for activity / activity at 100 µM: 100 µM, AA-HNA substrate assay, Supplementary Table 1. On the procedure:
(§1) HEK293T cells were cultured at 37°C under 5% CO2 in a DMEM medium with stable glutamine and phenolred, containing 10% fetal bovine serum (FBS, Gibco), penicillin, and streptomycin. The cells were passaged every 2–3 days by resuspension in the medium at ∼90% confluence. The membranes used in this study were prepared from transiently transfected HEK293T cells. Briefly, 1 day prior to transfection, ∼10^7 cells were seeded in 15 cm plates, and then the cells were transfected by the addition of a mixture of polyethyleneimine and plasmid DNA (3:1, 60, and 20 µg) in 2 ml of medium (without serum). Of note, the empty pcDNA3.1 vector was used in the Mock-control. After 24 h, the medium was removed and the cells were refreshed with fresh medium. After 72 h, the cells were harvested by suspending in 20 ml of medium, and the supernatant was removed by centrifugation for 10 min at 1,000 rpm. The cell pellet was flash frozen in liquid nitrogen and stored at −80°C until use. Subsequently, the cell pellets were suspended in lysis buffer (30 mM Tirs, pH 7.5, 1 mM MgCl2, 25 U/ml Benzonase), which was homogenized by sonication (3 × 10 bursts) and incubated for 30 min on ice. The membrane fractions overexpressing MAGL/ABHD6/ABHD12 were separated by ultracentrifuge (100,000 g, 30 min, 4 C). The protein concentration was determined with a Qubit protein assay (Invitrogen). The protein samples were quickly frozen in liquid nitrogen and stored at −80 C until use.
The MAGL activity assay is based on the hydrolysis of 2-arachidonoylglycerol-based fluorogenic substrate by MAGL-overexpressing membrane preparations from transiently transfected HEK293T cells. In brief, the reactions were performed in HEPES buffer (40 mM HEPES, pH 7.5, 0.1 mg/ml BSA) in black, flat bottom 96-well plates. […] After the incubation of the inhibitor-protein complex for 30 min, 10 µl of the fluorogenic substrate (AA-HNA, 200 µM) was added and fluorescence was measured in 1 min intervals for 30 min on a plate reader (BioTek). […] All the measurements were performed in N = 2, n = 2 for inhibitors and N = 2, n = 4 for controls with Z′ value ≥0.6. The slope is determined in 5–15 min for all the experiments.

Experiment [2] addresses T2, human ABHD6 (Homo sapiens, UniProt Q9BV23).
T2 construct: expressed in transfected cells; host or cells: HEK293T (transient transfection; membrane fraction)
T2 sequence (Q9BV23 1-337): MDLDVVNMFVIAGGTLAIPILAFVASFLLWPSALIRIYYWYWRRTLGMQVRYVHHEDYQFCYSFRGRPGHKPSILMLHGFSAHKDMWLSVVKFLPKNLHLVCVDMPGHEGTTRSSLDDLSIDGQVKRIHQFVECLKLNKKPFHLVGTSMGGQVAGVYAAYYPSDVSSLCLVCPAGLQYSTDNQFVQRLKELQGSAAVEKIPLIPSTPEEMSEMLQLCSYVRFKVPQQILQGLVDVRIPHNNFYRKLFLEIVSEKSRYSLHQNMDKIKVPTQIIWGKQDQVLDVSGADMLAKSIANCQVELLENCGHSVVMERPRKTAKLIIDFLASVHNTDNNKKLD
Description: ABHD6 activity assay (AA-HNA fluorogenic substrate). To be noted: for activity / activity at 100 µM: 100 µM, AA-HNA substrate assay, Supplementary Table 2. As for the experimental part: as §1
The MAGL activity assay is based on the hydrolysis of 2-arachidonoylglycerol-based fluorogenic substrate by MAGL-overexpressing membrane preparations from transiently transfected HEK293T cells. In brief, the reactions were performed in HEPES buffer (40 mM HEPES, pH 7.5, 0.1 mg/ml BSA) in black, flat bottom 96-well plates. The final protein concentration of membrane fractions from overexpressing human MAGL HEK293T cells was 12.5 μg/ml 5 µl of inhibitors were added from×40 concentrated DMSO stocks in the 96-well plate containing 145 µl assay buffer, followed by the addition of 40 µl of the protein (12.5 μg/ml). After the incubation of the inhibitor-protein complex for 30 min, 10 µl of the fluorogenic substrate (AA-HNA, 200 µM) was added and fluorescence was measured in 1 min intervals for 30 min on a plate reader (BioTek). Final assay concentrations: 12.5 μg/ml MAGL, […], and […] in the total volume of 200 µl. All the measurements were performed in N = 2, n = 2 for inhibitors and N = 2, n = 4 for controls with Z′ value ≥0.6. The slope is determined in 5–15 min for all the experiments.
The ABHD6 activity assay is based on the same principle as the MAGL activity assay described earlier, but with human ABHD6 overexpressing membrane preparations at a final protein concentration of 50 μg/ml and 200 µM AA-HNA. Other conditions are the same as those of the MAGL activity assay.

Experiment [3] addresses T3, human ABHD12 (Homo sapiens, UniProt Q8N2K0).
T3 construct: expressed in transfected cells; host or cells: HEK293T (transient transfection; membrane fraction)
T3 sequence (Q8N2K0 1-398): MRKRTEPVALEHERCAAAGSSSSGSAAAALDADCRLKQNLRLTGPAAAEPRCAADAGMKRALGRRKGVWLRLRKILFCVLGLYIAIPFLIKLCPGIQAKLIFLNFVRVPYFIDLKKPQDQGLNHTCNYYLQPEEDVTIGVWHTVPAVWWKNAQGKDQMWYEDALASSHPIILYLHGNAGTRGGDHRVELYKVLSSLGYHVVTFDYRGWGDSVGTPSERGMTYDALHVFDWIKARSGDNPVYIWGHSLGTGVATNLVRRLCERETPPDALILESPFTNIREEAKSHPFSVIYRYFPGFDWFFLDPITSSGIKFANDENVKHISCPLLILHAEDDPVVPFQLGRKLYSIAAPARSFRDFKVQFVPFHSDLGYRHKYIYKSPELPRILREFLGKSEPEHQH
Description: ABHD12 activity by competitive ABPP with FP-TAMRA. To be noted: read-out: ABHD12 Inhibition (%); for activity / activity at 100 µM: 100 µM compound, competitive ABPP with probe FP-TAMRA (250 nM). On the procedure:
as §1
The ABHD12 activity assay is based on competitive activity-based protein profiling (ABPP) with human ABHD12 overexpressing membrane fractions. Briefly, the membrane proteome (1 mg/ml, 20 µl) was incubated at room temperature with 0.5 µl DMSO (vehicle) or inhibitor for 30 min. Subsequently, the samples were treated with the activity-based probe FP-TAMRA (250 nM, final concentration) for 20 min. The reactions were then quenched by 10 µl sample buffer (×4) (final concentrations: 60 mM Tris, pH 6.8, 2% (w/v) SDS, 10% (v/v) glycerol, 5% (v/v) β-mercaptoethanol, 0.01% (v/v) bromophenol blue). The samples were directly loaded and resolved on SDS-PAGE gel (10% acrylamide), which were then scanned using a ChemiDoc MP system (Cy3 settings, BioRad).

Structures can show the parent of a compound that is named as a salt.

On to `C[N+](C)(C)CC(O)CC(=O)O` (racemic) [compound 27, DL-Carnitine HCl], for which the figures for the activity in experiment [1], in experiment [2] (read-out: ABHD6 Inhibition (%)) and in experiment [3] were 97.6%, 88.9% and 76.6%, respectively.
With `O=C(c1cccc(-c2ccc(-c3cn(C(=O)N4CCCCC4c4ccccc4)nn3)cc2)c1)N1CCCCC1` (stereo not shown) [KT185, reference compound], the “effect on fluorescent signal of AA-HNA hydrolysis by ABHD6” value in experiment [2] (10 µM) was “blocked”.
For the molecule `O=C(O[C@@H]1Cc2c(O)cc(O)cc2O[C@@H]1c1cc(O)c(O)c(O)c1)c1cc(O)c(O)c(O)c1` [compound 2, (-)-Epigallocatechin Gallate], the results for the activity at 100 µM in experiment [1], in experiment [2] (read-out: ABHD6 Inhibition (%)) and in experiment [3] were 38.9%, 95% and 59.6%, respectively.
Consider `CC(=O)c1c(O)c(C)c(O)c2c1OC1=CC(=O)C(C(C)=O)C(=O)C12C` [compound 3, D-Usnic Acid], for which the activity in experiment [1] worked out at 85.6%; in experiment [2] (read-out: ABHD6 Inhibition (%)), 97.9%; in experiment [3], 68.8%.
For `O=C(O)CCCc1c[nH]c2ccccc12` [compound 4, 3-Indolebutyric acid], the activity at 100 µM in experiment [1] came out at 85.4%; in experiment [2] (read-out: ABHD6 Inhibition (%)), 97.2%; in experiment [3], 77.2%.
On to `Cc1cc(=O)oc2cc(O)ccc12` [compound 5, 4-Methylumbelliferone], for which the activity at 100 µM in experiment [1] came out at 90.1%; in experiment [2] (read-out: ABHD6 Inhibition (%)) it was 92.5%; in experiment [3], 71%.
As for `N#C[C@H](O[C@@H]1O[C@H](CO[C@@H]2O[C@H](CO)[C@@H](O)[C@H](O)[C@H]2O)[C@@H](O)[C@H](O)[C@H]1O)c1ccccc1` [compound 7, Amygdalin], the activity at 100 µM in experiment [1] turned out to be 75.9%; in experiment [2] (read-out: ABHD6 Inhibition (%)) it was 90.2%; in experiment [3], 69.8%.
The like results for `C=C1CC[C@@H]2[C@](C)(CO)[C@H](O)CC[C@@]2(C)[C@@H]1C/C=C1/C(=O)OC[C@H]1O` [compound 8, Andrographolide] were, in that order, 83.5%, 81.8% and 61.9%.
For `OC[C@H]1O[C@@H](Oc2ccc(O)cc2)[C@H](O)[C@@H](O)[C@@H]1O` [compound 10, Arbutin], the activity at 100 µM in experiment [1] stood at 84.2%; in experiment [2] (read-out: ABHD6 Inhibition (%)), 83.2%; in experiment [3] it was 66.6%.
Turning to `C[C@H]1[C@H](OC(=O)CCC(=O)O)O[C@@H]2O[C@@]3(C)CC[C@H]4[C@H](C)CC[C@@H]1[C@@]24OO3` [compound 11, Artesunate], the activity at 100 µM in experiment [1] came out at 106%; in experiment [2] (read-out: ABHD6 Inhibition (%)), 46.5%; in experiment [3], 56.2%.
On to `C[C@H]1[C@H](C)CC[C@]2(C(=O)O)CC[C@]3(C)C(=CC[C@@H]4[C@@]5(C)C[C@@H](O)[C@H](O)[C@@](C)(CO)[C@@H]5CC[C@]43C)[C@H]12` [compound 12, Asiatic acid], for which the activity at 100 µM was found to be 86% in experiment [1], 95.6% in experiment [2] (read-out: ABHD6 Inhibition (%)) and 72.4% in experiment [3].
Take `O=[N+]([O-])c1ncc[nH]1` [compound 13, Azomycin]: the activity at 100 µM in experiment [1] was 89.9%; in experiment [2] (read-out: ABHD6 Inhibition (%)), 112%; in experiment [3], 87.7%.
Regarding `O=c1cc(-c2ccccc2)oc2cc(O)c(O)c(O)c12` [compound 14, Baicalein], the activity at 100 µM is 64.3% in experiment [1], 131% in experiment [2] (read-out: ABHD6 Inhibition (%)) and 82.7% in experiment [3].
As for `O=C(O)[C@H]1O[C@@H](Oc2cc3oc(-c4ccccc4)cc(=O)c3c(O)c2O)[C@H](O)[C@@H](O)[C@@H]1O` [compound 15, Baicalin], the values for the activity at 100 µM in experiment [1], in experiment [2] (read-out: ABHD6 Inhibition (%)) and in experiment [3] were 80.3%, 121% and 85.9%, respectively.
On to `COc1c(O)cc2c(c1O)[C@@H]1O[C@H](CO)[C@@H](O)[C@H](O)[C@H]1OC2=O` [compound 16, Bergenin], for which the activity at 100 µM in experiment [1] is 124%; in experiment [2] (read-out: ABHD6 Inhibition (%)), 110%; in experiment [3], 88%.
For `CC(C)(C)[C@]1(O)CC2OC(=O)CC23C(=O)OC2OC(=O)[C@H](O)C231` (stereo partly shown) [compound 18, Bilobalide], the percent inhibition at 100 µM was found to be 97.8% in experiment [1] and 83% in experiment [3]. Further, in experiment [2] (read-out: ABHD6 Inhibition (%)), the percent inhibition of ABHD6 at 100 µM worked out at 99.5%.
As for `O=C(O)/C=C/c1ccc(O)c(O)c1` [compound 19, Caffeic Acid], the figures for the activity in experiment [1], in experiment [2] (read-out: ABHD6 Inhibition (%)) and in experiment [3] were 90.1%, 108% and 83.7%, respectively.
For `O=C(/C=C/c1ccc(O)c(O)c1)O[C@@H]1C[C@](O)(C(=O)O)C[C@@H](O)[C@H]1O` [compound 20, Chlorogenic acid], the activity at 100 µM came to 95.2% in experiment [1], 102% in experiment [2] (read-out: ABHD6 Inhibition (%)) and 78.1% in experiment [3].
As for `C=C[C@H]1CN2CC[C@H]1C[C@H]2[C@H](O)c1ccnc2ccccc12` [compound 21, Cinchonidine], the activity at 100 µM turned out to be 59.3% in experiment [1], 109% in experiment [2] (read-out: ABHD6 Inhibition (%)) and 77.6% in experiment [3].
For `O=c1cc(-c2ccccc2)oc2cc(O)cc(O)c12` [compound 22, Chrysin], the activity at 100 µM in experiment [1] was found to be 93.2%; in experiment [2] (read-out: ABHD6 Inhibition (%)), 105%; in experiment [3] it was 84%.
